Assay results from patent US20250145576A1, “CATHEPSIN K INHIBITOR, AND PREPARATION METHOD THEREFOR AND USE THEREOF” (SHANDONG NEW TIME PHARMACEUTICAL CO., LTD., priority 2022, published 2025).

Assays:
[1] = Intrinsic clearance rate and half-life in rat liver microsomes; format: in vitro ADME; details: for half-life: rat
Method: 1 mL of a dichloromethane solution was respectively added into centrifuge tubes filled with test substance powders K2 (molecular formula C23H27N3O4, 4.6 mg), K3 (molecular formula C23H26FN3O4, 5.0 mg) and K4 (molecular formula C23H25F2N3O4, 5.6 mg) for dissolving, and subjected to ultrasonic treatment for 30 min to obtain a K2 stock solution with the mass concentration of 4.6 mg/mL, a K3 stock solution with the mass concentration of 5.0 mg/mL and a K4 stock solution with the mass concentration of 5.6 mg/mL. The stock solutions were sealedly stored in a refrigerator at −20° C. for later use. Before use, the stock solutions were gradually diluted with methanol to corresponding mass concentration to respectively prepare 0.02, 0.05, 0.22, 0.49, 0.96, 2.37 and 4.90 ng/mL of K2 series standard sample working solutions, 0.02, 0.05, 0.10, 0.19, 1.00, 2.01 and 4.93 ng/mL K3 series standard sample working solutions, and 0.10, 0.20, 0.53, 0.96, 2.42, 5.10 and 10.10 ng/mL K4 series standard sample working solutions.
5 μL of the test drugs, 2 μL of rat liver microsomes and 468 μL of a PBS buffer solution were taken by using a pipette and prepared a premixed solution. The premixed solution was incubated for 5 min in a water bath kettle at 37° C., 47.5 μL of the premixed solution was taken after the incubation was finished, and the premixed solution, 100 μL of ice-cold acetonitrile and 2.5 μL of a PBS buffer solution were added to another new tube after to be gently mixed evenly to obtain a control group. The reaction was started by adding 22.5 μL of a NADPH solution to the remaining premixed solution, the reaction solution was gently pipetted, and the reaction was stopped by immediately taking 50 μL of the premixed solution and 100 μL of acetonitrile in a new tube. Then the incubation liquid was put into the water bath for incubation, 50 μL of the incubation liquid was respectively taken at 5 min, 10 min, 20 min, 30 min, 45 min, 60 min and 90 min, and the reaction was terminated by adding 100 μL of acetonitrile. The reaction solution was centrifuged at 12,000 r/min for 10 min, and the supernatant was taken and detected on a machine.
• Chromatographic column: Hypersil GOLD 100*2.1 mm 3 μm liquid chromatography column • Mobile phase: 0.1% formic acid aqueous solution (A); and 100% acetonitrile (B) • Gradient elution (0-1 min: 50% B, 1-5 min: 50% B-90% B, 5-7 min: 90% B, 7-7.1 min: 50% B, and 7.1-10 min: 50% B) • Flow rate: 0.3 ml/min; column temperature: 40° C.; and injection volume: 5 μL […]
Sample solutions were subjected to sample injection analysis under the chromatographic and mass spectrometry conditions, and the peak areas were recorded. […]

C4-2B cells = assay: Migration, invasion and adhesion of C4-2B cells; format: cell-based; details: preliminary
ICR mice = assay: In-vivo toxicity study, single and multiple i.p. administration; details: for body weight vs vehicle group: all P>0.05
Method: Male ICR mice of 6-8 weeks were used as experimental subjects and randomly divided according to body weight after adaptive feeding for one week. Then compounds of different concentrations were prepared and used for single-administration and multiple-administration experiments by intraperitoneal injection (i.p), and a vehicle of the same component was used as a reference.
During this period, the body weight of the mice was measured daily. […] In the multiple-administration experiment, the administration doses of 50 mg/kg and 25 mg/kg were selected for administration at the frequency of once a day.

Cathepsin S = assay: Screening of Cathepsin S, fluorescence; format: biochemical; details: >> inhibition rate did not exceed 20% at test concentration; > greater than 35%; ≈ about 50%; < less than 50%
Method: (§1) 10 μL of a buffer, a Cat S inhibitor and test compounds (1 μM and 10 μM) were added to 96-well plates to serve as an EC well, an IC well and an S well, respectively; 50 μL of a Cat B enzyme solution was added into all the wells respectively and the mixture was incubated for 10-15 min at room temperature to establish an enzyme inhibitor complex; 40 μL of a Cat S substrate solution was added into all the wells and the mixture was incubated for 30-60 min at room temperature; and the final volume of the reaction was 100 μL.
(§2) The screening method was the same as above, the concentrations of the test compounds were set between 0.1 nM and 10 μM, 4-5 concentrations were selected for detection, IC50 curves were drawn, and IC50 values were calculated.

Cathepsin K = Cathepsin K (Homo sapiens (Human), UniProt P43235); assay: Cat K inhibitor screening kit, AFC substrate fluorescence; format: biochemical
Chain of Cathepsin K (P43235 115-329): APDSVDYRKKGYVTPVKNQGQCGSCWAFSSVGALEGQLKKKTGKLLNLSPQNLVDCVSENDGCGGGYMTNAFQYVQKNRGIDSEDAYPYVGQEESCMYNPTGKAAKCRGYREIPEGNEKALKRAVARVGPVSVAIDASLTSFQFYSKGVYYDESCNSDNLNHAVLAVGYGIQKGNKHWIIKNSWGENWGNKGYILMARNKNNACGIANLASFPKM
Method: Reagent information: Cat K inhibitor screening kit: batch number, 6L23K01500; supplier, BiVision. Drug preparation: compounds were dissolved in DMSO and prepared into 10 mM stock solutions. When in use, the stock solutions were prepared into the required concentrations by using a buffer.
Cathepsin K (CTSK, EC 3.4.22.38) is a lysosomal cysteine protease, participates in osteoclastic bone remodeling and resorption, and can further degrade collagen, gelatin and elastin. The cathepsin K inhibitor screening kit from Biovision uses the ability of the active cathepsin K to cleave a synthetic AFC-based peptide substrate to release AFC and the AFC can be easily quantified by using a fluorometer or fluorescent microplate reader. In the presence of a specific cathepsin K specific inhibitor, the cleavage of the substrate is reduced/eliminated, resulting in a reduction or complete loss of AFC fluorescence. The simple and high-throughput adaptive assay kit can be used to screen/study/characterize a potential inhibitor of the cathepsin K.
as §1, with “20 μL” for “10 μL”, “Cat K” for “Cat S”, “Cat K” for “Cat B”, “complex; 30” for “complex; 40”
The screening method was the same as 1.1, the concentrations of the test compounds were set between 0.1 nM and 10 μM, 4-5 concentrations were selected for detection, IC50 curves were drawn, and IC50 values were calculated.

Cathepsin B = Cathepsin B (Homo sapiens (Human), UniProt P07858); assay: Screening of Cathepsin B, fluorescence; format: biochemical; details: >> inhibition rate did not exceed 20% at test concentration; > greater than 35%; ≈ about 50%; < less than 50%
Method: as §1, with “Cat B” for “Cat S”
as §2

SMILES	IC50 (Cathepsin K) [nM]	half-life [1] [min]	Cat S/K ratio of inhibitory activities (Cathepsin S)	Cat B/K ratio of inhibitory activities (Cathepsin B)	also measured
CC(C)(C)CN(Cc1ccc(-c2ccc(F)cc2)cc1)c1nccc(C#N)n1 [Compound K4, 2-[(2,2-dimethylpropyl){[4-(4-fluorophenyl)phenyl]methyl}amino]pyrimidine-4-carbonitrile]	–	–	–	–	reduction of clearance rate compared with Ref-03 [1]: 2 times
CN1CCN(c2nc(-c3ccc(CN(CC(C)(C)C)c4nccc(C#N)n4)cc3)cs2)CC1 [Compound K18, 2-((4-(2-(4-methylpiperazin-1-yl)thiazol-4-yl)benzyl) (neopentyl)amino)pyrimidine-4-carbonitrile]	10 to 100	–	>>5,780	>>5,780	migration, invasion and adhesion of C4-2B cells (C4-2B cells): inhibit the migration, invasion and adhesion processes of the C4-2B cells in a concentration-dependent manner; in-vivo toxicity (overall) (ICR mice; ICR mice): relatively low in-vivo toxicity; body weight vs vehicle group (ICR mice; i.p. 50 mg/kg and 25 mg/kg once a day, one week): No significant difference; histopathology of liver, kidneys and heart vs vehicle group (ICR mice; multiple administration 50 mg/kg and single administration 500 mg/kg): no obvious pathological change was observed; body weight vs vehicle group (ICR mice; single i.p. administration 500 mg/kg and 300 mg/kg): No significant difference

The next lines start with results.

IC50 (Cathepsin K) [nM]	half-life [1] [min]	SMILES	Cat S/K ratio of inhibitory activities (Cathepsin S)	Cat B/K ratio of inhibitory activities (Cathepsin B)	also measured
10 to 100	46.6	O=C1COCC1NC(=O)[C@@H]1CCCC[C@H]1C(=O)N1CCc2[nH]c3ccccc3c2C1 (stereo partly drawn) [Compound K20, (1R,2R)-2-(2,3,4,5-tetrahydro-1H-pyrido[4,3-b]indole-2-carbonyl)-N-(4-oxotetrahydrofuran-3-yl)-cyclohexane-1-carboxamide]	–	–	–
10 to 100	42.4	O=C1COC[C@@H]1NC(=O)[C@@H]1CCCC[C@H]1C(=O)N1CCc2c([nH]c3c(F)cccc23)C1 [Compound K21, (1R,2R)-2-(8-fluoro-2,3,4,9-tetrahydro-1H-pyrido[3,4-b]indole-2-carbonyl)-N—((S)-4-oxotetrahydrofuran-3-yl)cyclohexane-1-carboxamide]	>710	>710	–
10 to 100	88.5	O=C1COC[C@@H]1NC(=O)[C@@H]1CCCC[C@H]1C(=O)N1CCc2c([nH]c3c(F)cc(F)cc23)C1 [Compound K22, (1R,2R)-2-(6,8-difluoro-2,3,4,9-tetrahydro-1H-pyrido[3,4-b]indole-2-carbonyl)-N—((S)-4-oxotetrahydrofuran-3-yl)cyclohexane-1-carboxamide]	–	–	–
